Assay results published in ChEMBL document CHEMBL5727757, “Methods, compositions, and uses of novel Fyn kinase inhibitors” (2020).

Biological target: Tyrosine-protein kinase Fyn (Homo sapiens, UniProt P06241)
Assay: ADP-Glo Kinase Assay: The assay procedure determines the IC50 of each potential FYN kinase inhibitor by measuring the enzyme catalyzed ATP-dependent phosphorylation of the FYN substrate peptide. The ADP-Glo™ Kinase Assay is specifically designed to quantify kinase activity by measuring the ADP produced in the reaction The reaction buffer comprises 40 mM Tris.HCl (pH 7.5), 20 mM MgCl2, 0.1 mg/ml BSA and 5 microM DTT. Individual compounds within the chemical library were dissolved in DMSO at known concentrations. Briefly, 2.5 microliters of reaction buffer containing 3 picograms of FYN kinase and serial dilutions of each potential FYN kinase inhibitor (9 3-fold dilutions of a 10 micromolar top sample) are placed into each well of a 384 well microtiter plate and incubated at room temperature for 30 minutes. An additional 2.5 microliters of reaction buffer containing 100 picograms of the FYN substrate and 12.5 picomoles of ATP are then added to each well and the reaction carried out for 90 minutes at room temperature.

Chain of Tyrosine-protein kinase Fyn (P06241 whole entry): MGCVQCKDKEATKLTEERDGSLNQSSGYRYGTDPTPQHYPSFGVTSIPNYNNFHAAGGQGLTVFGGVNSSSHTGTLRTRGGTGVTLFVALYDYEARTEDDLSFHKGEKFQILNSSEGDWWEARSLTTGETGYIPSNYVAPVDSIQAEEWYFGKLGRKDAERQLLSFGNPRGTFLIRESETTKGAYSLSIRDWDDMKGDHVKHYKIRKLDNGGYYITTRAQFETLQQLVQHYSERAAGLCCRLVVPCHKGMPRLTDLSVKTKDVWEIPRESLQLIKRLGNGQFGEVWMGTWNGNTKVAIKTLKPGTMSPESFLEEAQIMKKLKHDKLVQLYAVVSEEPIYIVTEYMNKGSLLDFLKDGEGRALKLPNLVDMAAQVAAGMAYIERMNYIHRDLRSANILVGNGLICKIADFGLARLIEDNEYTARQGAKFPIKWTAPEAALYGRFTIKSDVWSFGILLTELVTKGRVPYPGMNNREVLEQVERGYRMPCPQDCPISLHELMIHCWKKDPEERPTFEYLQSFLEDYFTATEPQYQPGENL

An IC50 of 330 nM was found for `COc1cc(-c2nn([C@H]3CC[C@H](N4CCN(C)CC4)CC3)c3ncnc(N)c23)ccc1NC(=O)c1cc2ccccc2n1C` in this work.

An IC50 of 8 nM was found for `COc1ccc2c(c1)-c1nc(Nc3cc(C)c(OCCN(C)C)c(C)c3)ncc1CC2` in this work.

An IC50 of 6.69 nM was found for `COc1cc2ncnc3c2cc1OCCCCCN(C(=O)OCc1ccccc1)Cc1ccc2c(c1N3)OCO2` in this work.

An IC50 of 8 nM was found for `COc1ccc2c(c1)-c1nc(Nc3ccc(CCCN4CCCC4)c(OC)c3)ncc1CC2(C)C` in this work.
